Test results from the supplement of paper PMC10627819.

How the values were obtained:
[1] = system: S. pneumoniae D39V; experiment: fitness (endpoint OD595 vs no drug) (fraction); higher = more growth
Outline: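 With the first reading as background, OD595 was measured every 30 min for 14 h in 384-well plates kept at 37 °C and inoculated at OD595 0.01. TSB, LB Lennox or CY was the medium. Fitness is the optical density at the transition into stationary phase divided by the robust mean of no-drug control wells, with a cap of 1.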

[2] = system: B. subtilis 168; experiment: Bliss interaction score (quartile over a dose matrix) (fitness difference); higher = more antagonism (negative = synergy)
Outline: (§1)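 The Bliss score is observed fitness minus expected fitness, where the expected value is the product of single-drug fitness values inferred from combination data. Fitness is OD595 at entry into stationary phase normalised to the plate's robust no-drug mean and capped at 1. Scores are reported as quartiles spanning technical, biological and donor/recipient replicates.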

[3] = system: S. aureus DSM 20231; experiment: as above
Outline: as §1

[4] = system: S. aureus Newman; experiment: as above
Outline: as §1

[5] = system: S. pneumoniae D39V; experiment: as above
Outline: as §1
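Throughout, for Bliss interaction score (quartile over a dose matrix): first quartile when negative (synergy) and third quartile when positive (antagonism).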
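Throughout, for fitness (endpoint OD595 vs no drug): OD595 on entry to stationary phase over no-drug wells; at most 1.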

CC[C@H]1OC(=O)[C@H](C)[C@@H](O[C@H]2C[C@@](C)(OC)[C@@H](O)[C@H](C)O2)[C@H](C)[C@@H](O[C@@H]2O[C@H](C)C[C@H](N(C)C)[C@H]2O)[C@](C)(OC)C[C@@H](C)C(=O)[C@H](C)[C@@H](O)[C@]1(C)O [Clarithromycin] + Cn1nnc(-c2ccc(-c3ccc(N4C[C@H](CO)OC4=O)cc3F)cn2)n1 [Tedizolid]
fitness, [1], one replicate
Conditions	first compound 0.007812 µg/mL	first compound 0.01562 µg/mL	first compound 0.03125 µg/mL
partner 0.125 µg/mL	0.739	0.692	0.639
partner 0.25 µg/mL	0.701	0.685	0.686
partner 0.5 µg/mL	0.373	0.381	0.353

fitness, [1]
Conditions	first compound 0.0625 µg/mL	first compound 0.07 µg/mL	first compound 0.125 µg/mL	first compound 0.14 µg/mL	first compound 0.25 µg/mL	first compound 0.28 µg/mL
partner 0.03125 µg/mL	0.715	–	0.544	–	0.317	–
partner 0.0625 µg/mL	0.727	–	0.571	–	0.336	–
partner 0.125 µg/mL	0.666	0.0645	0.511	0.053	0.275	0.0588
partner 0.25 µg/mL	–	0.0475	–	0.0527	–	0.0319
partner 0.5 µg/mL	–	0.0477	–	0.0537	–	0.0347

Conditions	Bliss interaction score
[2]	-0.0452
[3]	-0.109
[4]	-0.106
[5]	0.0824

CC[C@H]1OC(=O)[C@H](C)[C@@H](O[C@H]2C[C@@](C)(OC)[C@@H](O)[C@H](C)O2)[C@H](C)[C@@H](O[C@@H]2O[C@H](C)C[C@H](N(C)C)[C@H]2O)[C@](C)(OC)C[C@@H](C)C(=O)[C@H](C)[C@@H](O)[C@]1(C)O [Clarithromycin] + O=C(O[C@@H]1Cc2c(O)cc(O)cc2O[C@@H]1c1cc(O)c(O)c(O)c1)c1cc(O)c(O)c(O)c1 [EGCG]
fitness, [1], one replicate
Conditions	first compound 0.007812 µg/mL	first compound 0.01562 µg/mL	first compound 0.03125 µg/mL
partner 12.5 µg/mL	0.808	0.8	0.635
partner 25 µg/mL	0.847	0.762	0.609
partner 50 µg/mL	0.827	0.77	0.614

fitness, [1]
Conditions	first compound 0.0625 µg/mL	first compound 0.07 µg/mL	first compound 0.125 µg/mL	first compound 0.14 µg/mL	first compound 0.25 µg/mL	first compound 0.28 µg/mL
partner 12.5 µg/mL	0.457	0.123	0.241	0.0422	0.0839	0.0515
partner 25 µg/mL	0.493	0.115	0.25	0.0716	0.0874	0.0518
partner 50 µg/mL	0.383	0.144	0.373	0.0769	0.122	0.0507

Conditions	Bliss interaction score
[2]	0.0404
[3]	0.109
[4]	0.132
[5]	-0.0473

CC[C@H]1OC(=O)[C@H](C)[C@@H](O[C@H]2C[C@@](C)(OC)[C@@H](O)[C@H](C)O2)[C@H](C)[C@@H](O[C@@H]2O[C@H](C)C[C@H](N(C)C)[C@H]2O)[C@](C)(OC)C[C@@H](C)C(=O)[C@H](C)[C@@H](O)[C@]1(C)O [Clarithromycin] + C[C@@H](O)[C@H]1C(=O)N2C(C(=O)O)=C(SCCNC=N)C[C@H]12 [Imipenem]
fitness, [1], one replicate
Conditions	first compound 0.007812 µg/mL	first compound 0.01562 µg/mL	first compound 0.03125 µg/mL
partner 0.005 µg/mL	0.831	0.812	0.589
partner 0.01 µg/mL	0.855	0.837	0.612
partner 0.02 µg/mL	0.858	0.844	0.629

fitness, [1]
Conditions	first compound 0.0625 µg/mL	first compound 0.07 µg/mL	first compound 0.125 µg/mL	first compound 0.14 µg/mL	first compound 0.25 µg/mL	first compound 0.28 µg/mL
partner 0.005 µg/mL	–	0.13	–	0.0799	–	0.0611
partner 0.0065 µg/mL	0.541	–	0.154	–	0.0361	–
partner 0.01 µg/mL	–	0.146	–	0.0799	–	0.0532
partner 0.013 µg/mL	0.661	–	0.277	–	0.0557	–
partner 0.02 µg/mL	–	0.17	–	0.109	–	0.0635
partner 0.026 µg/mL	0.621	–	0.201	–	0.0493	–

Conditions	Bliss interaction score
[2]	0.0428
[3]	0.0295
[4]	0.0267
[5]	-0.085

C[C@@H](O)[C@H]1C(=O)N2C(C(=O)O)=C(SCCNC=N)C[C@H]12 [Imipenem] + CN[C@H](CC(C)C)C(=O)N[C@H]1C(=O)N[C@@H](CC(N)=O)C(=O)N[C@H]2C(=O)N[C@H]3C(=O)N[C@H](C(=O)N[C@H](C(=O)O)c4cc(O)cc(O)c4-c4cc3ccc4O)[C@H](O)c3ccc(c(Cl)c3)Oc3cc2cc(c3O[C@@H]2O[C@H](CO)[C@@H](O)[C@H](O)[C@H]2O[C@H]2C[C@](C)(N)[C@H](O)[C@H](C)O2)Oc2ccc(cc2Cl)[C@H]1O [Vancomycin]
fitness, [1]
Conditions	first compound 0.005 µg/mL	first compound 0.0065 µg/mL	first compound 0.01 µg/mL	first compound 0.013 µg/mL	first compound 0.02 µg/mL	first compound 0.026 µg/mL
partner 0.03125 µg/mL	0.991	–	0.973	–	0.958	–
partner 0.0625 µg/mL	0.943	–	0.928	–	0.922	–
partner 0.125 µg/mL	0.783	0.769	0.767	0.798	0.76	0.817
partner 0.25 µg/mL	–	0.0266	–	0.0839	–	0.0574
partner 0.5 µg/mL	–	0.0186	–	0.0324	–	0.0486

Conditions	Bliss interaction score
[2]	-0.0736
[3]	0.0423
[4]	-0.0669
[5]	-0.184

O=C1CN(/N=C/c2ccc([N+](=O)[O-])o2)C(=O)N1 [Nitrofurantoin] + CN(N=O)C(=O)N[C@@H](C=O)[C@@H](O)[C@H](O)[C@H](O)CO [Streptozotocin]
fitness, [1]
Conditions	partner 1.2 µg/mL	partner 2.4 µg/mL	partner 4.8 µg/mL
first compound 1.285 µg/mL	0.928	0.94	0.939
first compound 2.57 µg/mL	0.939	0.952	0.957

fitness, [1], one replicate
Conditions	first compound 2 µg/mL	first compound 4 µg/mL	first compound 5.14 µg/mL	first compound 8 µg/mL
partner 1.2 µg/mL	0.954	0.959	0.86	0.818
partner 2.4 µg/mL	0.961	≥ 1	0.919	0.842
partner 4.8 µg/mL	≥ 1	≥ 1	0.871	≥ 1

Conditions	Bliss interaction score
[2]	0.0585
[3]	-0.034
[4]	0.0906
[5]	0.0714

C[C@@H](O)[C@H]1C(=O)N2C(C(=O)O)=C(SCCNC=N)C[C@H]12 [Imipenem] + C[n+]1ccc(-c2cc[n+](C)cc2)cc1 [Paraquat]
fitness, [1], one replicate
Conditions	first compound 0.005 µg/mL	first compound 0.01 µg/mL	first compound 0.02 µg/mL
partner 1.5 µg/mL	0.991	0.997	≥ 1
partner 3 µg/mL	0.994	0.996	≥ 1
partner 6 µg/mL	≥ 1	≥ 1	0.998

fitness, [1]
Conditions	first compound 0.0065 µg/mL	first compound 0.013 µg/mL	first compound 0.026 µg/mL
partner 1.5 µg/mL	0.97	0.983	–
partner 3 µg/mL	0.968	0.969	0.939
partner 6 µg/mL	0.926	0.799	0.847

Conditions	Bliss interaction score
[2]	-0.0424
[3]	0.0307
[4]	0.0426
[5]	0.0638

O=C1CN(/N=C/c2ccc([N+](=O)[O-])o2)C(=O)N1 [Nitrofurantoin] + CN[C@H](CC(C)C)C(=O)N[C@H]1C(=O)N[C@@H](CC(N)=O)C(=O)N[C@H]2C(=O)N[C@H]3C(=O)N[C@H](C(=O)N[C@H](C(=O)O)c4cc(O)cc(O)c4-c4cc3ccc4O)[C@H](O)c3ccc(c(Cl)c3)Oc3cc2cc(c3O[C@@H]2O[C@H](CO)[C@@H](O)[C@H](O)[C@H]2O[C@H]2C[C@](C)(N)[C@H](O)[C@H](C)O2)Oc2ccc(cc2Cl)[C@H]1O [Vancomycin]
fitness, [1]
Conditions	first compound 1.285 µg/mL	first compound 2 µg/mL	first compound 2.57 µg/mL	first compound 4 µg/mL	first compound 8 µg/mL
partner 0.03125 µg/mL	–	0.926	–	0.959	0.892
partner 0.0625 µg/mL	–	0.882	–	0.959	0.894
partner 0.125 µg/mL	0.969	0.748	0.973	0.851	–
partner 0.25 µg/mL	0.611	–	0.653	–	–
partner 0.5 µg/mL	0.0954	–	0.0768	–	–

[1], first compound 5.14 µg/mL, one replicate
Conditions	fitness
partner 0.125 µg/mL	0.965
partner 0.25 µg/mL	0.446
partner 0.5 µg/mL	0.118

Conditions	Bliss interaction score
[2]	0.0308
[3]	0.0253
[4]	0.0534
[5]	0.142
